According to the supplement of paper PMC10307832:

Experiments:
Assay in all cases: relative viability (nuclei count vs DMSO), 5 days (fraction); higher = more cells survive
Neratinib + Tozasertib = compound: CCOc1cc2ncc(C#N)c(Nc3ccc(OCc4ccccn4)c(Cl)c3)c2cc1NC(=O)/C=C/CN(C)C [Neratinib] + Cc1cc(Nc2cc(N3CCN(C)CC3)nc(Sc3ccc(NC(=O)C4CC4)cc3)n2)n[nH]1 [Tozasertib] (partner 0.1 µM)
How it was run: (§1)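 Relative viability equals treated-well nuclei counts divided by vehicle-well nuclei counts. Counts came from 4× images of lung cancer cell lines grown in 1536-well plates for 5 days after pin-tool dosing on the day after seeding. Dosing used one drug alone or a fixed anchor-drug dose plus five library-drug doses (not always all listed) in √10 steps, and values are medians of duplicate plates.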

Neratinib + Dasatinib = compound: CCOc1cc2ncc(C#N)c(Nc3ccc(OCc4ccccn4)c(Cl)c3)c2cc1NC(=O)/C=C/CN(C)C [Neratinib] + Cc1nc(Nc2ncc(C(=O)Nc3c(C)cccc3Cl)s2)cc(N2CCN(CCO)CC2)n1 [Dasatinib] (partner 0.075 µM)
How it was run: as §1

Neratinib + Foretinib = compound: CCOc1cc2ncc(C#N)c(Nc3ccc(OCc4ccccn4)c(Cl)c3)c2cc1NC(=O)/C=C/CN(C)C [Neratinib] + COc1cc2c(Oc3ccc(NC(=O)C4(C(=O)Nc5ccc(F)cc5)CC4)cc3F)ccnc2cc1OCCCN1CCOCC1 [Foretinib] (partner 0.25 µM)
How it was run: as §1

Neratinib + Phenformin = compound: CCOc1cc2ncc(C#N)c(Nc3ccc(OCc4ccccn4)c(Cl)c3)c2cc1NC(=O)/C=C/CN(C)C [Neratinib] + N=C(N)NC(=N)NCCc1ccccc1 [Phenformin] (partner 250 µM)
How it was run: as §1

Neratinib + OSI-027 = compound: CCOc1cc2ncc(C#N)c(Nc3ccc(OCc4ccccn4)c(Cl)c3)c2cc1NC(=O)/C=C/CN(C)C [Neratinib] + COc1cccc2cc(-c3nc([C@H]4CC[C@H](C(=O)O)CC4)n4ncnc(N)c34)[nH]c12 [OSI-027] (partner 0.5 µM)
How it was run: as §1

Neratinib + Luminespib = compound: CCOc1cc2ncc(C#N)c(Nc3ccc(OCc4ccccn4)c(Cl)c3)c2cc1NC(=O)/C=C/CN(C)C [Neratinib] + CCNC(=O)c1noc(-c2cc(C(C)C)c(O)cc2O)c1-c1ccc(CN2CCOCC2)cc1 [Luminespib] (partner 0.01 µM)
How it was run: as §1

Neratinib = compound: CCOc1cc2ncc(C#N)c(Nc3ccc(OCc4ccccn4)c(Cl)c3)c2cc1NC(=O)/C=C/CN(C)C [Neratinib]
How it was run: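 Hoechst staining, done together with fixation and permeabilisation, marked nuclei for 4× imaging and MetaXpress counting. This followed 5 days without medium change after lung cancer cell lines, kept overnight at 37 °C in 1536-well plates, were pinned with five library-drug doses (not always all listed) spaced by √10 on vehicle-anchored plates. Viability is the ratio of treated-well to vehicle-well nuclei, expressed as a median across plates. Plates passed only at control CV below 25% with at least one doubling.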

## NCI-H1623
Neratinib + Tozasertib; first compound 0.01 µM
  relative viability: 0.477
Neratinib + Tozasertib; first compound 0.03162 µM
  relative viability: 0.424
Neratinib + Tozasertib; first compound 0.3162 µM
  relative viability: 0.224
Neratinib + Tozasertib; first compound 1 µM
  relative viability: 0.229
Neratinib + Dasatinib; first compound 0.01 µM
  relative viability: 0.578
Neratinib + Dasatinib; first compound 0.03162 µM
  relative viability: 0.538
Neratinib + Dasatinib; first compound 0.1 µM
  relative viability: 0.464
Neratinib + Dasatinib; first compound 0.3162 µM
  relative viability: 0.432
Neratinib + Dasatinib; first compound 1 µM
  relative viability: 0.26
Neratinib + Foretinib; first compound 0.01 µM
  relative viability: 0.822
Neratinib + Foretinib; first compound 0.03162 µM
  relative viability: 0.856
Neratinib + Foretinib; first compound 0.1 µM
  relative viability: 0.621
Neratinib + Foretinib; first compound 0.3162 µM
  relative viability: 0.31
Neratinib + Foretinib; first compound 1 µM
  relative viability: 0.241
Neratinib + Phenformin; first compound 0.01 µM
  relative viability: 0.598
Neratinib + Phenformin; first compound 0.03162 µM
  relative viability: 0.589
Neratinib + Phenformin; first compound 0.1 µM
  relative viability: 0.509
Neratinib + Phenformin; first compound 0.3162 µM
  relative viability: 0.337
Neratinib + Phenformin; first compound 1 µM
  relative viability: 0.236
Neratinib + OSI-027; first compound 0.01 µM
  relative viability: 0.496
Neratinib + OSI-027; first compound 0.03162 µM
  relative viability: 0.376
Neratinib + OSI-027; first compound 0.1 µM
  relative viability: 0.365
Neratinib + OSI-027; first compound 0.3162 µM
  relative viability: 0.213
Neratinib + OSI-027; first compound 1 µM
  relative viability: 0.261
Neratinib + Luminespib; first compound 0.01 µM
  relative viability: 0.663
Neratinib + Luminespib; first compound 0.03162 µM
  relative viability: 0.566
Neratinib + Luminespib; first compound 0.1 µM
  relative viability: 0.401
Neratinib + Luminespib; first compound 0.3162 µM
  relative viability: 0.355
Neratinib + Luminespib; first compound 1 µM
  relative viability: 0.341
Neratinib; 0.03162 µM
  relative viability: 0.903
Neratinib; 0.1 µM
  relative viability: 0.755
Neratinib; 0.3162 µM
  relative viability: 0.333
Neratinib; 1 µM
  relative viability: 0.271
